The target in data set [1] is T1, Serine/threonine-protein kinase 17A (Homo sapiens, UniProt Q9UEE5).
T1 sequence (Q9UEE5 whole entry): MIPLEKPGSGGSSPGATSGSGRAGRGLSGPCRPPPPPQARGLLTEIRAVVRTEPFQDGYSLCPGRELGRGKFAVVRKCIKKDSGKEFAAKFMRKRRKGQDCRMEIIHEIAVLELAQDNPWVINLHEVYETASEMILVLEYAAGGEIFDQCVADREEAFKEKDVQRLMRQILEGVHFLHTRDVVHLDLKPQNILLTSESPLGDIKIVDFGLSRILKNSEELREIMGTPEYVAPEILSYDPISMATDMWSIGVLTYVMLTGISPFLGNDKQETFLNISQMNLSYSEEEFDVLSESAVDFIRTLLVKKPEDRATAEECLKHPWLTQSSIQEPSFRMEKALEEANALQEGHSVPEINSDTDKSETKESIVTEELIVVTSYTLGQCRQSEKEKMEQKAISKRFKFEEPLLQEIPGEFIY
Briefly: Inhibition of STK17A (unknown origin) in presence of ATP.

Data set [2] has as its target T2, Myosin light chain kinase family member 4 (Homo sapiens, UniProt Q86YV6).
T2 sequence (Q86YV6 whole entry): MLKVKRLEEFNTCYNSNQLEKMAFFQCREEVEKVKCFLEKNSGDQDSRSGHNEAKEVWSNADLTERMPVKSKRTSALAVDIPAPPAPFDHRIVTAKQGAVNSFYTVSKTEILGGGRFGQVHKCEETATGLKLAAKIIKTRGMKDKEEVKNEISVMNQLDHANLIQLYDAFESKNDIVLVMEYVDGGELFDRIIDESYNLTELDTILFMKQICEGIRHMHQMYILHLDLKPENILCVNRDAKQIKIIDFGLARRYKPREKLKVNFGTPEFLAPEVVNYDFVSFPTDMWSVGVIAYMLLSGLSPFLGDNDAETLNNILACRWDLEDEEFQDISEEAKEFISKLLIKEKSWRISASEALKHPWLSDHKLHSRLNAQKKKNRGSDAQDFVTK
In words: Inhibition of MYLK4 (unknown origin) in presence of ATP.

Data set [3] deals with T3, Dual specificity protein kinase CLK4 (Homo sapiens, UniProt Q9HAZ1). Briefly: Inhibition of CLK4 (unknown origin) in presence of ATP.
Target sequence in this assay (Q9HAZ1 whole entry): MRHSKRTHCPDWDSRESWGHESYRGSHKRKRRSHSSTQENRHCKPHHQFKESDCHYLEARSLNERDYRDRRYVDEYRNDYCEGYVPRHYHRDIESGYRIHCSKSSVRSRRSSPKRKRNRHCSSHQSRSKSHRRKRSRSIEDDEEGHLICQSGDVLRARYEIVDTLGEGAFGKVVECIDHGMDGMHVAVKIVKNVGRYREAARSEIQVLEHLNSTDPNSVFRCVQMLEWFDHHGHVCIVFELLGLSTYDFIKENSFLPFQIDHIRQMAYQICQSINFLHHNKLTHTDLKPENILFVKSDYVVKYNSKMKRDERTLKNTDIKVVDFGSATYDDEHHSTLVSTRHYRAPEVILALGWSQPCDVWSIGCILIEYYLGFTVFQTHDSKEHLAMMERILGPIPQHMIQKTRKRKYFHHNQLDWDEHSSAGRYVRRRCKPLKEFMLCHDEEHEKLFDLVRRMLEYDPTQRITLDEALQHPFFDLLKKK
For the next data set, the target named is T4, CYP1A2 (Homo sapiens, UniProt P05177).
T4 sequence (P05177 whole entry): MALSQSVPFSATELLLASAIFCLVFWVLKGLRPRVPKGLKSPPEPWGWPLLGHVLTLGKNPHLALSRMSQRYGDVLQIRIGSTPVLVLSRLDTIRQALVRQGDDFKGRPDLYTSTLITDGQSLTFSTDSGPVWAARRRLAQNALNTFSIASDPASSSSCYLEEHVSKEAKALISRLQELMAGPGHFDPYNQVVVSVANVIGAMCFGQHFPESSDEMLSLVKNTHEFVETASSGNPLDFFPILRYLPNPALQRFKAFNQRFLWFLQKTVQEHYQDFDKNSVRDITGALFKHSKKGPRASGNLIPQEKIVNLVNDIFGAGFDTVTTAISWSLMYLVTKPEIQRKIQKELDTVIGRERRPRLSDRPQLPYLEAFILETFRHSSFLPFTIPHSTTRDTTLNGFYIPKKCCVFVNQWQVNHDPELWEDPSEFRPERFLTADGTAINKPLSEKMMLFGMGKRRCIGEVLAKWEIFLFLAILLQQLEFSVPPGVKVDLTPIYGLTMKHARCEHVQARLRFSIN
In words: Inhibition of CYP1A2 (unknown origin) using phenacetin as substrate at 10 uM by cocktail based assay relative to control. The format is ADME. The following applies: probe phenacetin.

For another data set, the target named is CYP2C9 (Homo sapiens, UniProt P11712). In words: Inhibition of CYP2C9 (unknown origin) using tolbutamide as substrate at 10 uM by cocktail based assay relative to control. The following applies: probe tolbutamide. The format is ADME.
Chain of CYP2C9 (P11712 whole entry): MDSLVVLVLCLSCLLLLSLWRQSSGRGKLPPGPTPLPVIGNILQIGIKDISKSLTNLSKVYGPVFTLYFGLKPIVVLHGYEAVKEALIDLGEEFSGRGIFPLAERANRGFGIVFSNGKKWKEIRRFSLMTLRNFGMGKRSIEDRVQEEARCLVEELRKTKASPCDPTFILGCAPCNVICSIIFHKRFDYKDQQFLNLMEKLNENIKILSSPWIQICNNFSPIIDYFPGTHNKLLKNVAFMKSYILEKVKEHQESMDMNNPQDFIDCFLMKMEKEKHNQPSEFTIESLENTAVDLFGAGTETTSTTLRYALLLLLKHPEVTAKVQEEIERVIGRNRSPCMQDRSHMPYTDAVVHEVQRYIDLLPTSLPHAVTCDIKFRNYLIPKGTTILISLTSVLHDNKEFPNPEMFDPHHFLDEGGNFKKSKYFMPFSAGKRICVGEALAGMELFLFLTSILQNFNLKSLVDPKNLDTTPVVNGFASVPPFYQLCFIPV
For a further data set, the target named is CYP2D6 (Homo sapiens, UniProt P10635). In words: Inhibition of CYP2D6 (unknown origin) using bufuralol as substrate at 10 uM by cocktail based assay relative to control. Format: ADME. The following applies: probe bufuralol.
Chain of CYP2D6 (P10635 whole entry): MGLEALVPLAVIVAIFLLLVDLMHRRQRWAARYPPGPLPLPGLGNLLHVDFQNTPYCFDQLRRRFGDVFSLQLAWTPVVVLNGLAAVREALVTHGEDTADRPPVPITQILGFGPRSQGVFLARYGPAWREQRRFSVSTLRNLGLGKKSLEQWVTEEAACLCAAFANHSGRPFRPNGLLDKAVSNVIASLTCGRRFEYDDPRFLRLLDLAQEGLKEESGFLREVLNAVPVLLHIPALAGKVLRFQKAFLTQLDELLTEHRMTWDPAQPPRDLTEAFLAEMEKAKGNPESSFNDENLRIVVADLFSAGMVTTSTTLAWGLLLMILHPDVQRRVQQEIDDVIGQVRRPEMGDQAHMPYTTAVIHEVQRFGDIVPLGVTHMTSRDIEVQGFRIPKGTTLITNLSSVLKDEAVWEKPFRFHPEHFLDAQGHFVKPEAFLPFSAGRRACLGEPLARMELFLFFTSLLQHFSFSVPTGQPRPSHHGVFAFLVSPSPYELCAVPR
The next data set has as its target CYP3A4 (Homo sapiens, UniProt P08684). Briefly: Inhibition of CYP3A4 (unknown origin) using midazolam as substrate at 10 uM by cocktail based assay relative to control. The format is ADME. The settings on record: probe midazolam.
Data set [4] in a line: Microsomal stability in human liver microsomes assessed as half life. The format is ADME, Microsome.
Data set [5] can be described thus: Microsomal stability in mouse liver microsomes assessed as half life. The format is ADME, Microsome.
The next data set concerns MOLM-13. In words: Antiproliferative activity against human MOLM-13 cells assessed as inhibition of cell growth incubated for 72 hrs by Cell Titer-Glo luminescence assay. The format is functional, cell-based. The following applies: MOLM-13, 72 h.
For a further data set, the system named is HEL. Briefly: Antiproliferative activity against human HEL cells assessed as inhibition of cell growth incubated for 72 hrs by Cell Titer-Glo luminescence assay. Format: functional, cell-based.
In the next data set the test system is Kasumi 1. Briefly: Antiproliferative activity against human Kasumi 1 cells assessed as inhibition of cell growth incubated for 72 hrs by Cell Titer-Glo luminescence assay. The format is functional, cell-based. The settings on record: Kasumi 1, 72 h.
A short description of data set [6]: Antiproliferative activity against human HEK293T cells assessed as inhibition of cell growth incubated for 72 hrs by Cell Titer-Glo luminescence assay. Format: toxicity, cell-based, HEK-293T.
Data set [7] deals with Inhibitor of nuclear factor kappa-B kinase subunit epsilon (Homo sapiens) (UniProt Q14164). Briefly: Inhibition of IKKepsilon (unknown origin) at 100 nM in presence of ATP relative to control.
Chain of Inhibitor of nuclear factor kappa-B kinase subunit epsilon (Homo sapiens) (Q14164 whole entry): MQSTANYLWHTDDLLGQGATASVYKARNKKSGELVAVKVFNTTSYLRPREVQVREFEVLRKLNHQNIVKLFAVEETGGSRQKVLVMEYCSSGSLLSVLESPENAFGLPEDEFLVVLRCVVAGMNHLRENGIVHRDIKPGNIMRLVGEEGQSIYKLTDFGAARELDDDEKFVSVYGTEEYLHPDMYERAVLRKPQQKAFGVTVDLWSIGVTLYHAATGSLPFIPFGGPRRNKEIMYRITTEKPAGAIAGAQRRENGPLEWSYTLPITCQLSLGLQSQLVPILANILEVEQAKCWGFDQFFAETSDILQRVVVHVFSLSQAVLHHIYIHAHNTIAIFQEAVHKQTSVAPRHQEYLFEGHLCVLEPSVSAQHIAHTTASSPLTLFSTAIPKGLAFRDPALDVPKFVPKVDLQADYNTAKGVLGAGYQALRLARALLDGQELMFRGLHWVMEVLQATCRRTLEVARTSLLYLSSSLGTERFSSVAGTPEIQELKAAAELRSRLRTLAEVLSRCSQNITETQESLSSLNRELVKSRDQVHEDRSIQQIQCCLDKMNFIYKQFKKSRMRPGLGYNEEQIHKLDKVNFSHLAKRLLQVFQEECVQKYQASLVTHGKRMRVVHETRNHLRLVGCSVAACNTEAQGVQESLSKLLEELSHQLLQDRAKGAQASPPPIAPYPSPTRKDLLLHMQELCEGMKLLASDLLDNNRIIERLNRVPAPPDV
Data set [8] addresses Dual specificity protein kinase CLK2 (Homo sapiens) (UniProt P49760). In words: Inhibition of CLK2 (unknown origin) at 100 nM in presence of ATP relative to control.
The target in data set [9] is Serine/threonine-protein kinase TBK1 (Homo sapiens, UniProt Q9UHD2). Briefly: Inhibition of TBK1 (unknown origin) in presence of ATP.
Chain of Serine/threonine-protein kinase TBK1 (Q9UHD2 whole entry): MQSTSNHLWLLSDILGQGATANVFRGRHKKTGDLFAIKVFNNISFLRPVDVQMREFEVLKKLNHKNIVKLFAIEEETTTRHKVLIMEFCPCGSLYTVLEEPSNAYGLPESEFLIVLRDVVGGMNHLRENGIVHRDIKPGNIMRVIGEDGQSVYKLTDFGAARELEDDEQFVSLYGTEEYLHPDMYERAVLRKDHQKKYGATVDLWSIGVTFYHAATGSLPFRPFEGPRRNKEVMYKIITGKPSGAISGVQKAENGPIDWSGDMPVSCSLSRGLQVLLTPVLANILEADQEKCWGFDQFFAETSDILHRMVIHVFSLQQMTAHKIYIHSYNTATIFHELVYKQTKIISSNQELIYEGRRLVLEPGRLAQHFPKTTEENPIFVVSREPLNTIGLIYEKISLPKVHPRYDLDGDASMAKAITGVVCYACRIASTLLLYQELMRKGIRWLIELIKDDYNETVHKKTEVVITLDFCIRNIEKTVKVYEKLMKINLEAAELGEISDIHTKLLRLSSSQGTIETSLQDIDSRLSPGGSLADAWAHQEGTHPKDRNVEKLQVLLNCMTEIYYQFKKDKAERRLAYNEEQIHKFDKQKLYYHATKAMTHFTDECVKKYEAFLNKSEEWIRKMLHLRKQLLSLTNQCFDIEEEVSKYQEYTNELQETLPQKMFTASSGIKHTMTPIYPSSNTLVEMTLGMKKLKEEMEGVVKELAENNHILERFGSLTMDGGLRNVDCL
The target of data set [10] is Myosin light chain kinase family member 4 (Homo sapiens) (UniProt Q86YV6). The settings on record: dose 100.0 nM.
Description: Inhibition of MYLK4 (unknown origin) at 100 nM in presence of ATP relative to control
Data set [11] deals with Serine/threonine-protein kinase 17A (Homo sapiens) (UniProt Q9UEE5). The following applies: dose 100.0 nM.
Description: Inhibition of STK17A (unknown origin) at 100 nM in presence of ATP relative to control
The target of data set [12] is Serine/threonine-protein kinase TBK1 (Homo sapiens) (UniProt Q9UHD2). The settings on record: dose 100.0 nM.
Chain of Serine/threonine-protein kinase TBK1 (Homo sapiens) (Q9UHD2 whole entry): as above
Description: Inhibition of TBK1 (unknown origin) at 100 nM in presence of ATP relative to control
Data set [13] has as its target T3, Dual specificity protein kinase CLK4. The settings on record: dose 100.0 nM.
Target sequence in this assay (Q9HAZ1 whole entry, looked up): as the sequence (Q9HAZ1 whole entry) above
Description: Inhibition of CLK4 (unknown origin) at 100 nM in presence of ATP relative to control

SMILES strings stand for the structures. Some results are limits rather than exact numbers.

Chain of CYP3A4 (P08684 whole entry): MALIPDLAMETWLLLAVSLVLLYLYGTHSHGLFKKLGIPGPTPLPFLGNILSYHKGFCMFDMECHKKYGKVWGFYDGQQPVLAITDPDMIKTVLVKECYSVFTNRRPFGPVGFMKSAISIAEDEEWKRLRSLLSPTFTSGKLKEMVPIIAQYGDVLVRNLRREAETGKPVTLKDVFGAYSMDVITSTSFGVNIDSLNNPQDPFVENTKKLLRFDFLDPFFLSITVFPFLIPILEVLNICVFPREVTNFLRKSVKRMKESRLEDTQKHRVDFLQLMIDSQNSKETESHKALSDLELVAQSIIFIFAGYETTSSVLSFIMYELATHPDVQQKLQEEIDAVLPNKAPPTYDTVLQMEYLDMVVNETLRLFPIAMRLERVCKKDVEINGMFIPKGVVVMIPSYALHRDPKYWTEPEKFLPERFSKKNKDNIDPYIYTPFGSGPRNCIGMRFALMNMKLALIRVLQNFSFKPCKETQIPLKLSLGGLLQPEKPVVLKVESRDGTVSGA
Chain of Dual specificity protein kinase CLK2 (Homo sapiens) (P49760 whole entry, looked up): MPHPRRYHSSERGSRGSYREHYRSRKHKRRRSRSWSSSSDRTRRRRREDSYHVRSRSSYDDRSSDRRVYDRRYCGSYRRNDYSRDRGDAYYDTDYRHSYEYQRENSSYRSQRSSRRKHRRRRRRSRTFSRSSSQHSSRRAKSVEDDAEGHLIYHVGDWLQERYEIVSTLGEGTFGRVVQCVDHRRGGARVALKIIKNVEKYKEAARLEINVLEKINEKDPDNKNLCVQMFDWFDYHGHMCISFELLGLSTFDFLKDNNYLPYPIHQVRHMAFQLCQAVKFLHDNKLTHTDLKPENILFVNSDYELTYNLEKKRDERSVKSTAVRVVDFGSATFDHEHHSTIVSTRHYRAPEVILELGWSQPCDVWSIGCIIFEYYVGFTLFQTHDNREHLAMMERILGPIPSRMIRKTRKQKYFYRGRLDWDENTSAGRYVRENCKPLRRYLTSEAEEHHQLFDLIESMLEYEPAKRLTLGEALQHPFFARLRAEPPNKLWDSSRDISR

Take `CN1CCN(c2ccc(Nc3nccc(-c4ccc5nc(N6CCCC6)ncc5c4)n3)cc2)CC1`: the IC50 in [1] was found to be 51 nM.

For the molecule `OCCN1CCC(c2ccc(Nc3nccc(-c4ccc5nc(N6C[C@@H]7C[C@H]6CO7)ncc5c4)n3)cn2)CC1`, the IC50 in data set [1] came out at 17 nM; in [2] it was 40 nM; in data set [3], 1120 nM. Further, the inhibition at 10 µM at CYP1A2, at CYP2C9, against CYP2D6 and against CYP3A4 was less than 10% each time. For the same molecule, the half-life was 20 min in [4] and 69 min in data set [5].

In the case of `c1cc(-c2ccc3nc(N4CCCC4)ncc3c2)nc(Nc2ccc(N3CCOCC3)cc2)n1`, the IC50 came to 43 nM in data set [1] and 46 nM in data set [2]. In addition, the inhibition at 10 µM was less than 10% against CYP1A2, 14% against CYP2C9, less than 10% against CYP2D6 and 22% against CYP3A4. The half-life in data set [4] is 69 min; in data set [5], 35 min.

With `c1cc(-c2ccc3nc(N4CCOCC4)ncc3c2)nc(Nc2cnn(C3CCNCC3)c2)n1`, the IC50 in data set [1] came to 19 nM; in data set [2] it was 6 nM. Further, the inhibition at 10 µM against CYP1A2 is 11%; at CYP2C9, less than 10%; at CYP2D6 it was less than 10%; against CYP3A4, less than 10%. Besides, the results for the half-life in data set [4] and in data set [5] were 84 min and 62 min, respectively.

Take `OCCN1CCC(n2cc(Nc3ncc(F)c(-c4ccc5nc(N6CCOCC6)ncc5c4)n3)cn2)CC1`: the IC50 in data set [1] was found to be 21 nM; in data set [2], 17 nM; in the data set on MOLM-13, 1960 nM; in the data set with HEL, 2960 nM; in the data set on Kasumi 1 it was 760 nM. For the same molecule, the inhibition at 10 µM on CYP1A2, against CYP2C9, on CYP2D6 and at CYP3A4 was less than 10% each time. Also, the half-life in data set [4] was 97 min; in data set [5], 83 min. For the same molecule, in data set [6], the IC50 at 72 h came to 16200 nM.

For `c1cc(-c2ccc3nc(N4CCCC4)ncc3c2)nc(Nc2cnn(C3CCNCC3)c2)n1`, the IC50 was determined as 20 nM in data set [1] and 6 nM in data set [2]. For the same molecule, the inhibition at 10 µM was 52% on CYP1A2, less than 10% at CYP2C9, 5% on CYP2D6 and less than 10% against CYP3A4. Further, the half-life in data set [4] was 23 min; in [5] it was more than 100 min.

Consider `c1cc(-c2ccc3nc(N4CCCC4)ncc3c2)nc(Nc2ccc(N3CCNCC3)nc2)n1`, for which the IC50 is 18 nM in data set [1]; 2 nM in data set [2]; 124 nM in [3]; 135 nM in data set [9]; 1340 nM in the data set with MOLM-13; 1930 nM with HEL. In addition, the IC50 in the data set on Kasumi 1 amounted to 1190 nM. Moreover, the inhibition in [7] amounted to 45%; in data set [8] it was 50%; in data set [10], 95%; in data set [11], 75%; in data set [12], 45%; in [13] it was 50%. Besides, in data set [6], the IC50 at 72 h worked out at 11700 nM.

As to `O=C(NC1CCNCC1)c1ccc(Nc2nccc(-c3ccc4nc(N5CCCC5)ncc4c3)n2)cc1`, the IC50 in data set [1] came out at 316 nM.

Consider `CC(C)NC(=O)c1cccc(Nc2nccc(-c3ccc4nc(N5CCCC5)ncc4c3)n2)c1`, for which the IC50 in data set [1] was determined as 144 nM.

As for `CC(C)NC(=O)c1ccc(Nc2nccc(-c3ccc4nc(N5CCCC5)ncc4c3)n2)cn1`, the IC50 in data set [1] is 12 nM; in data set [2], 85 nM; in [3], more than 10000 nM. For the same molecule, the inhibition at 10 µM at CYP1A2 came out at 22%; against CYP2C9 it was 39%; on CYP2D6, 16%; at CYP3A4, 25%. In addition, the half-life worked out at 61 min in data set [4] and 92 min in data set [5].

For `CC(C)NC(=O)c1ccc(Nc2nccc(-c3ccc4nc(N5CCOCC5)ncc4c3)n2)cc1`, the IC50 was found to be 20 nM in [1] and 68 nM in data set [2]. In addition, the inhibition at 10 µM on CYP1A2 was 12%; at CYP2C9, less than 10%; against CYP2D6, 1%; against CYP3A4, less than 10%. Besides, the half-life in data set [4] stood at 16 min; in data set [5], 59 min.

`CC(C)NC(=O)c1ccc(Nc2ncc(F)c(-c3ccc4nc(N5CCCC5)ncc4c3)n2)cc1`: the half-inhibitory concentration (IC50) was 25 nM in data set [1], more than 1000 nM in [2] and more than 10000 nM in [3]. Also, the inhibition at 10 µM at CYP1A2, on CYP2C9, against CYP2D6 and on CYP3A4 was less than 10% in each case. For the same molecule, the half-life was 44 min in data set [4] and 22 min in data set [5].

`COC(=O)N1CCC(c2ccc(Nc3nccc(-c4ccc5nc(N6CCCC6)ncc5c4)n3)cn2)CC1`: the IC50 in [1] worked out at 66 nM.

As to `c1cc(-c2ccc3nc(N4CCCC4)ncc3c2)nc(Nc2ccc(N3CCNCC3)cc2)n1`, the IC50 in data set [1] was 55 nM; in [2], 27 nM. The inhibition at 10 µM on CYP1A2 came out at 7%; against CYP2C9 it was 23%; on CYP2D6 it was 2%; against CYP3A4 it was 22%. Moreover, the half-life in data set [4] is more than 100 min; in data set [5], 9 min.

Consider `c1cc(-c2ccc3nc(N4CCOCC4)ncc3c2)nc(Nc2ccc(N3CCNCC3)cc2)n1`, for which the IC50 in [1] worked out at 20 nM; in data set [2], 4 nM. The inhibition at 10 µM was less than 10% against CYP1A2, 7% against CYP2C9, less than 10% on CYP2D6 and 11% at CYP3A4. The half-life in [4] is 12 min; in [5], 16 min.

Consider `c1cc(-c2ccc3nc(N4CCCC4)ncc3c2)nc(Nc2ccc(OC3CCNCC3)cc2)n1`, for which the IC50 in data set [1] was more than 10000 nM.

For `OCCN1C[C@@H]2C[C@H]1CN2c1ccc(Nc2ncc(F)c(-c3ccc4nc(N5CCCC5)ncc4c3)n2)cn1`, the IC50 amounted to 48 nM in data set [1], 13 nM in [2] and 160 nM in data set [3].

Take `COC(=O)N1CCC(c2ccc(Nc3nccc(-c4ccc5nc(N6C[C@@H]7C[C@H]6CO7)ncc5c4)n3)cn2)CC1`: the IC50 in [1] was 29 nM.

Source of the values: ChEMBL document CHEMBL5532747, “Potent, Selective, and Orally Bioavailable Quinazoline-Based STK17A/B Dual Inhibitors” (ACS Med Chem Lett, 2024).
